Laboratory results published in the NIST ThermoML archive (doi:10.1021/je050509f).

Test: mn = molality of the nth substance listed, in mol/kg
Settings: Liquid, Vibrating tube method

[Cl-].[Cl-].[Zn+2] [zinc chloride] + CO
mass density [kg/m3]
Settings | 323.24 K | 348.27 K
305 kPa, m1 = 1.977 | – | 904.26
308 kPa, m1 = 0.1348 | – | 752.15
320 kPa, m1 = 0.4768 | – | 782.8
328 kPa, m1 = 0.8018 | – | 810.17
330 kPa, m1 = 1.039 | – | 829.39
335 kPa, m1 = 5.367 | – | 1141.63
4982 kPa, m1 = 5.367 | – | 1146.29
4983 kPa, m1 = 0.4768 | – | 788.73
4984 kPa, m1 = 1.977 | – | 909.72
4989 kPa, m1 = 0.1348 | – | 758.25
4994 kPa, m1 = 1.039 | – | 835.08
4999 kPa, m1 = 0.8018 | – | 816.01
9985 kPa, m1 = 1.977 | – | 915.25
9992 kPa, m1 = 0.8018 | – | 821.86
9992 kPa, m1 = 5.367 | – | 1151.14
9993 kPa, m1 = 0.1348 | – | 764.3
9994 kPa, m1 = 0.4768 | 818.67 | –
9997 kPa, m1 = 5.367 | 1181.61 | –
9998 kPa, m1 = 0.4768 | – | 794.7
10000 kPa, m1 = 1.039 | – | 840.82
10002 kPa, m1 = 0.8018 | 846.25 | –
10003 kPa, m1 = 0.1348 | 787.77 | –
10005 kPa, m1 = 1.039 | 865.32 | –
14982 kPa, m1 = 0.4768 | 823.55 | –
14985 kPa, m1 = 0.4768 | – | 800.24
14985 kPa, m1 = 0.8018 | – | 827.35
14987 kPa, m1 = 1.039 | – | 846.22
14992 kPa, m1 = 1.977 | – | 920.51
14998 kPa, m1 = 1.977 | 946.2 | –
14999 kPa, m1 = 0.1348 | 792.71 | 769.95
14999 kPa, m1 = 1.039 | 870.09 | –
15002 kPa, m1 = 0.8018 | 851.11 | –
15002 kPa, m1 = 5.367 | 1185.89 | –
15020 kPa, m1 = 5.367 | – | 1155.81
19986 kPa, m1 = 1.977 | – | 925.5
19989 kPa, m1 = 0.4768 | – | 805.48
19994 kPa, m1 = 0.8018 | – | 832.56
19995 kPa, m1 = 0.4768 | 828.21 | –
19998 kPa, m1 = 5.367 | 1190.03 | –
19999 kPa, m1 = 0.8018 | 855.74 | –
19999 kPa, m1 = 1.977 | 950.72 | –
20000 kPa, m1 = 0.1348 | 797.39 | –
20003 kPa, m1 = 1.039 | 874.64 | –
24989 kPa, m1 = 0.8018 | 860.16 | –
24989 kPa, m1 = 1.977 | 955.05 | –
24989 kPa, m1 = 5.367 | 1194.06 | –
24990 kPa, m1 = 1.039 | 878.98 | –
24994 kPa, m1 = 0.1348 | 801.85 | –
24999 kPa, m1 = 0.4768 | 832.65 | –
29987 kPa, m1 = 0.4768 | 836.86 | –
29989 kPa, m1 = 0.8018 | 864.4 | –
29990 kPa, m1 = 1.977 | 959.23 | –
29993 kPa, m1 = 0.1348 | 806.09 | –
30001 kPa, m1 = 5.367 | 1197.99 | –
30007 kPa, m1 = 1.039 | 883.18 | –
34987 kPa, m1 = 5.367 | 1201.8 | –
34989 kPa, m1 = 1.039 | 887.17 | –
34998 kPa, m1 = 0.8018 | 868.48 | –
35001 kPa, m1 = 1.977 | 963.27 | –
35003 kPa, m1 = 0.4768 | 840.94 | –
35007 kPa, m1 = 0.1348 | 810.14 | –
39991 kPa, m1 = 1.039 | 891.04 | –
39994 kPa, m1 = 0.4768 | 844.83 | –
39995 kPa, m1 = 0.8018 | 872.4 | –
39995 kPa, m1 = 5.367 | 1205.55 | –
39997 kPa, m1 = 0.1348 | 814 | –
39997 kPa, m1 = 1.977 | 967.17 | –
